Measured values published in the NIST ThermoML archive (doi:10.1021/acs.jced.5b00105).

Legend:
[1] = refractive index (Na D-line) (dimensionless); details: 100 kPa, Liquid
[2] = for surface tension liquid-gas: Drop volume; for viscosity / mass density: 100 kPa, Liquid; for viscosity: Concentric cylinders viscometry; for mass density: Vibrating tube method
[3] = refractive index (Na D-line) (dimensionless); xn = mol fraction of the nth substance listed; details: 100 kPa, Liquid, x2 = 0
[4] = xn = mol fraction of the nth substance listed; details: x2 = 0; for surface tension liquid-gas: Drop volume; for viscosity / mass density: 100 kPa, Liquid; for viscosity: Concentric cylinders viscometry; for mass density: Vibrating tube method

CC(C)CC(C)(C)C [2,2,4-trimethylpentane]
Details	mass density, [2] [kg/m3]	refractive index, [1]	surface tension liquid-gas, [2] [mN/m]	viscosity, [2] [mPa·s]
293.15 K	691.91	1.3921	18.94	0.518
298.15 K	687.82	1.3886	18.39	0.493
303.15 K	683.68	1.3876	17.99	0.47
308.15 K	679.51	1.3848	17.58	0.449
313.15 K	675.32	1.3833	–	0.43
318.15 K	671.05	1.3785	–	0.414
323.15 K	666.8	1.376	–	0.398
333.15 K	658.2	–	–	0.371
343.15 K	649.44	–	–	0.348

CC(C)CC(C)(C)C [2,2,4-trimethylpentane] + CC1CCCCC1
Details	mass density, [4] [kg/m3]	refractive index, [3]	surface tension liquid-gas, [4] [mN/m]	viscosity, [4] [mPa·s]
293.15 K	691.91	1.3921	18.94	0.518
298.15 K	687.82	1.3886	18.39	0.493
303.15 K	683.68	1.3876	17.99	0.47
308.15 K	679.51	1.3848	17.58	0.449
313.15 K	675.32	1.3833	–	0.43
318.15 K	671.05	1.3785	–	0.414
323.15 K	666.8	1.376	–	0.398
333.15 K	658.2	–	–	0.371
343.15 K	649.44	–	–	0.348

CC(C)CC(C)(C)C [2,2,4-trimethylpentane] + CCC1CCCCC1
Details	mass density, [4] [kg/m3]	refractive index, [3]	surface tension liquid-gas, [4] [mN/m]	viscosity, [4] [mPa·s]
293.15 K	691.91	1.3921	18.94	0.518
298.15 K	687.82	1.3886	18.39	0.493
303.15 K	683.68	1.3876	17.99	0.47
308.15 K	679.51	1.3848	17.58	0.449
313.15 K	675.32	1.3833	–	0.43
318.15 K	671.05	1.3785	–	0.414
323.15 K	666.8	1.376	–	0.398
333.15 K	658.2	–	–	0.371
343.15 K	649.44	–	–	0.348

CC(C)CC(C)(C)C [2,2,4-trimethylpentane] + CCCCC1CCCCC1
Details	mass density, [4] [kg/m3]	refractive index, [3]	surface tension liquid-gas, [4] [mN/m]	viscosity, [4] [mPa·s]
293.15 K	691.91	1.3921	18.94	0.518
298.15 K	687.82	1.3886	18.39	0.493
303.15 K	683.68	1.3876	17.99	0.47
308.15 K	679.51	1.3848	17.58	0.449
313.15 K	675.32	1.3833	–	0.43
318.15 K	671.05	1.3785	–	0.414
323.15 K	666.8	1.376	–	0.398
333.15 K	658.2	–	–	0.371
343.15 K	649.44	–	–	0.348

CCCCC1CCCCC1 [butylcyclohexane]
Details	mass density, [2] [kg/m3]	refractive index, [1]	surface tension liquid-gas, [2] [mN/m]	viscosity, [2] [mPa·s]
293.15 K	799.37	1.4403	26.81	1.304
298.15 K	795.63	1.4377	25.87	1.199
303.15 K	791.88	1.4355	25.49	1.109
308.15 K	788.12	1.4333	24.73	1.031
313.15 K	784.35	1.4314	–	0.961
318.15 K	780.49	1.429	–	0.9
323.15 K	776.7	1.4268	–	0.844
333.15 K	769.09	–	–	0.749
343.15 K	761.43	–	–	0.671

CCC1CCCCC1 [ethylcyclohexane]
Details	mass density, [2] [kg/m3]	refractive index, [1]	surface tension liquid-gas, [2] [mN/m]	viscosity, [2] [mPa·s]
293.15 K	787.98	1.4337	25.47	0.848
298.15 K	783.97	1.4301	24.76	0.793
303.15 K	779.93	1.4295	24.55	0.745
308.15 K	775.88	1.4278	23.74	0.702
313.15 K	771.82	1.4259	–	0.663
318.15 K	767.69	1.4204	–	0.628
323.15 K	763.59	1.4187	–	0.597
333.15 K	755.35	–	–	0.541
343.15 K	747.03	–	–	0.496

CC1CCCCC1 [methylcyclohexane]
Details	mass density, [2] [kg/m3]	refractive index, [1]	surface tension liquid-gas, [2] [mN/m]	viscosity, [2] [mPa·s]
293.15 K	769.35	1.4232	23.87	0.735
298.15 K	765.05	1.4199	23.02	0.692
303.15 K	760.71	1.419	22.55	0.651
308.15 K	756.37	1.4168	22.12	0.615
313.15 K	752	1.415	–	0.58
318.15 K	747.58	1.4102	–	0.549
323.15 K	743.17	1.4078	–	0.522
333.15 K	734.29	–	–	0.476
343.15 K	725.31	–	–	0.439
